Measurements reported in patent US10323032B2, “P2X7 Modulators” (Janssen Pharmaceutica NV, priority 2013, dated 2019).
Where two headings read alike, the source gives them in different places.

Target: P2X7 receptor (Homo sapiens (Human), UniProt Q99572)
Experiment: P2X7 antagonism in human PBMCs: IL-1β release (ELISA) after LPS + Bz-ATP
Assay type: cell-based
Conditions: LPS 30 ng/ml + 0.5 mM Bz-ATP; for remaining activity at 10 µM: read-out: PBMC 10 μM (% control)
Method: Human blood was collected using a blood donor program. […] Cells were incubated for an additional 1.5 hours. […] Data are analyzed and graphed on Graphpad Prism 5. […] The IC50 for each compound is then uploaded into 3DX.

[1] = P2X7, Table 3 (additional runs), 10 μM compound

P2X7 receptor, sequence (Q99572 whole entry): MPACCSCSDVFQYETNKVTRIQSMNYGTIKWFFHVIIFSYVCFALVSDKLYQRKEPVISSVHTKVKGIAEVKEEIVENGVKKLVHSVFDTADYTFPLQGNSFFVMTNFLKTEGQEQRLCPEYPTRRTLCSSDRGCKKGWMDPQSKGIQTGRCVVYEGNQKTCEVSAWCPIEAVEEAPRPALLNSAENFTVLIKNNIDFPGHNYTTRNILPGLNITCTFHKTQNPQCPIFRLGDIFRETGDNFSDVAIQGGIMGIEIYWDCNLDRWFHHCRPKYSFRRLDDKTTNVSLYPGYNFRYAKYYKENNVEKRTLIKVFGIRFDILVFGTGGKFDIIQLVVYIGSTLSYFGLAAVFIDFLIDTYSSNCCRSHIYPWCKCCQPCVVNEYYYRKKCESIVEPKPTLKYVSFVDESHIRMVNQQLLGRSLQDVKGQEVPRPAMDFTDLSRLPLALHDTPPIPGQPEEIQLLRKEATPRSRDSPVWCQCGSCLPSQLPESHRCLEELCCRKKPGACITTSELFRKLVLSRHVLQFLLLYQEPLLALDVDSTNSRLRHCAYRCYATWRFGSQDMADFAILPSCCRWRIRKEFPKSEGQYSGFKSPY

| Compound | remaining activity at 10 µM [1] [%] | further results |
| --- | --- | --- |
| Cc1nc2c(c(-c3ccn[nH]3)n1)CC(C)N(C(=O)c1cccc(OC(F)(F)F)c1)C2 (stereo not shown) [Example 140, (2,6-dimethyl-4-(1H-pyrazol-5-yl)-5,6-dihydropyrido[3,4-d]pyrimidin-7(8H)-yl)(3-(trifluoromethoxy)phenyl)methanone] | – | PBMC 10 μM (% control) (Table 3 (additional runs), 10 μM compound): 52.5 % control |
| Cc1nc2c(c(-c3ccn[nH]3)n1)C[C@@H](C)N(C(=O)c1cccc(F)c1Cl)C2 (single isomer, unassigned) [Example 144, (R*)-(2-chloro-3-fluorophenyl)(2,6-dimethyl-4-(1H-pyrazol-5-yl)-5,6-dihydropyrido[3,4-d]pyrimidin-7(8H)-yl)methanone] | -18.9 | – |
| Cc1nc2c(c(-c3ccn[nH]3)n1)C[C@@H](C)N(C(=O)c1cccc(OC(F)(F)F)c1)C2 (single isomer, unassigned) [Example 141, (R*)-(2,6-dimethyl-4-(1H-pyrazol-5-yl)-5,6-dihydropyrido[3,4-d]pyrimidin-7(8H)-yl)(3-(trifluoromethoxy)phenyl)methanone] | -0.6 | – |
| Cc1nc2c(c(-c3ccn[nH]3)n1)C[C@H](C)N(C(=O)c1ccc(Cl)cc1F)C2 (single isomer, unassigned) [Example 89, (S*)-(4-chloro-2-fluorophenyl)(2,6-dimethyl-4-(1H-pyrazol-5-yl)-5,6-dihydropyrido[3,4-d]pyrimidin-7(8H)-yl)methanone] | – | remaining activity at 10 µM (P2X7, Table 2, 10 μM compound): -16.4% |
